Reference: PubChem BioAssay (NCI)
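How tested: cells in 96-well plates exposed to compound for 48 hours at five concentrations. The concentration for 50% growth inhibition is given as GI50. TGI denotes the concentration required for complete inhibition of growth.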

Assays:
Assay in all cases: inhibition of tumour cell growth, NCI panel, 48 h
BT-549 breast = tested on: BT-549 breast
NCI/ADR-RES ovarian = tested on: NCI/ADR-RES ovarian
786-0 renal = tested on: 786-0 renal
SNB-19 CNS = tested on: SNB-19 CNS
HOP-62 NSCLC = tested on: HOP-62 NSCLC
CCRF-CEM leukemia = tested on: CCRF-CEM leukemia
ACHN renal = tested on: ACHN renal
PC-3 prostate = tested on: PC-3 prostate
U251 CNS = tested on: U251 CNS
SK-MEL-2 melanoma = tested on: SK-MEL-2 melanoma
K-562 leukemia = tested on: K-562 leukemia
CAKI-1 renal = tested on: CAKI-1 renal
UACC-62 melanoma = tested on: UACC-62 melanoma
UO-31 renal = tested on: UO-31 renal
MDA-MB-435 = tested on: MDA-MB-435
SR leukemia = tested on: SR leukemia
SK-OV-3 ovarian = tested on: SK-OV-3 ovarian
COLO 205 colon = tested on: COLO 205 colon
RXF 393 renal = tested on: RXF 393 renal
EKVX NSCLC = tested on: EKVX NSCLC
DU-145 prostate = tested on: DU-145 prostate
MOLT-4 leukemia = tested on: MOLT-4 leukemia
SK-MEL-28 melanoma = tested on: SK-MEL-28 melanoma
SNB-75 CNS = tested on: SNB-75 CNS
SF-268 CNS = tested on: SF-268 CNS
A549 NSCLC = tested on: A549 NSCLC
NCI-H226 lung = tested on: NCI-H226 lung
OVCAR-3 ovarian = tested on: OVCAR-3 ovarian
HS 578T breast = tested on: HS 578T breast
HCC-2998 colon = tested on: HCC-2998 colon
M14 melanoma = tested on: M14 melanoma
HL-60(TB) leukemia = tested on: HL-60(TB) leukemia
NCI-H460 lung = tested on: NCI-H460 lung
SW-620 colon = tested on: SW-620 colon
OVCAR-5 ovarian = tested on: OVCAR-5 ovarian
MDA-MB-231 breast = tested on: MDA-MB-231 breast
IGROV1 ovarian = tested on: IGROV1 ovarian
T-47D breast = tested on: T-47D breast
KM12 colon = tested on: KM12 colon
SF-539 CNS = tested on: SF-539 CNS
OVCAR-8 ovarian = tested on: OVCAR-8 ovarian
HT29 colon = tested on: HT29 colon
OVCAR-4 ovarian = tested on: OVCAR-4 ovarian
SN12C renal = tested on: SN12C renal
HCT-116 colon = tested on: HCT-116 colon
MALME-3M melanoma = tested on: MALME-3M melanoma
RPMI-8226 leukemia = tested on: RPMI-8226 leukemia
MCF7 breast = tested on: MCF7 breast
LOX IMVI melanoma = tested on: LOX IMVI melanoma
NCI-H522 lung = tested on: NCI-H522 lung
TK-10 renal = tested on: TK-10 renal
A498 renal = tested on: A498 renal
NCI-H23 lung = tested on: NCI-H23 lung
HCT-15 colon = tested on: HCT-15 colon
SF-295 CNS = tested on: SF-295 CNS
UACC-257 melanoma = tested on: UACC-257 melanoma
SK-MEL-5 melanoma = tested on: SK-MEL-5 melanoma
HOP-92 NSCLC = tested on: HOP-92 NSCLC

## O=C(Nc1cccc(Cl)c1)Nc1nccs1
BT-549 breast
  GI50: 31.6 µM
  TGI: > 100 µM
NCI/ADR-RES ovarian
  GI50: 16.6 µM
  TGI: 58.9 µM
786-0 renal
  GI50: 26.6 µM
  TGI: 63 µM
SNB-19 CNS
  GI50: 36.6 µM
  TGI: > 100 µM
HOP-62 NSCLC
  GI50: 25.3 µM
  TGI: > 100 µM
CCRF-CEM leukemia
  GI50: 27 µM
  TGI: > 100 µM
ACHN renal
  GI50: 30.5 µM
  TGI: > 100 µM
PC-3 prostate
  GI50: 24.6 µM
  TGI: 94.8 µM
U251 CNS
  GI50: 18.2 µM
  TGI: 50.7 µM
SK-MEL-2 melanoma
  GI50: 24.3 µM
  TGI: 52.1 µM
K-562 leukemia
  GI50: 20.3 µM
  TGI: > 100 µM
CAKI-1 renal
  GI50: 15.6 µM
  TGI: 43.5 µM
UACC-62 melanoma
  GI50: 20.4 µM
  TGI: 57.4 µM
UO-31 renal
  GI50: 17.7 µM
  TGI: 53.6 µM
MDA-MB-435
  GI50: 4 µM
  TGI: 27.2 µM
SR leukemia
  GI50: 13.6 µM
  TGI: 46.7 µM
SK-OV-3 ovarian
  GI50: 20.8 µM
  TGI: 63.9 µM
COLO 205 colon
  GI50: 16 µM
  TGI: 32.1 µM
RXF 393 renal
  GI50: 22.6 µM
  TGI: 49.4 µM
EKVX NSCLC
  GI50: 19.8 µM
  TGI: 69.2 µM
DU-145 prostate
  GI50: 24.1 µM
  TGI: 65.2 µM
MOLT-4 leukemia
  GI50: 21.4 µM
  TGI: 82 µM
SK-MEL-28 melanoma
  GI50: 31.8 µM
  TGI: > 100 µM
SNB-75 CNS
  GI50: 20 µM
  TGI: 56.1 µM
SF-268 CNS
  GI50: 30 µM
  TGI: > 100 µM
A549 NSCLC
  GI50: 26.5 µM
  TGI: > 100 µM
NCI-H226 lung
  GI50: 38.7 µM
  TGI: > 100 µM
OVCAR-3 ovarian
  GI50: 20.2 µM
  TGI: 53.6 µM
HS 578T breast
  GI50: 15.3 µM
  TGI: 43.6 µM
HCC-2998 colon
  GI50: 21.3 µM
  TGI: 51.2 µM
M14 melanoma
  GI50: 30.2 µM
  TGI: > 100 µM
HL-60(TB) leukemia
  GI50: 28.1 µM
  TGI: 89.2 µM
NCI-H460 lung
  GI50: 17.1 µM
  TGI: 42.4 µM
SW-620 colon
  GI50: 26.6 µM
  TGI: > 100 µM
OVCAR-5 ovarian
  GI50: 34.8 µM
  TGI: > 100 µM
MDA-MB-231 breast
  GI50: 18 µM
  TGI: 41.8 µM
IGROV1 ovarian
  GI50: 16.4 µM
  TGI: 70.7 µM
T-47D breast
  GI50: 12.7 µM
  TGI: 78 µM
KM12 colon
  GI50: 8.5 µM
  TGI: 37.5 µM
SF-539 CNS
  GI50: 20.6 µM
  TGI: 61.6 µM
OVCAR-8 ovarian
  GI50: 25.1 µM
  TGI: 84.8 µM
HT29 colon
  GI50: 19.7 µM
  TGI: 46.6 µM
OVCAR-4 ovarian
  GI50: 27.5 µM
  TGI: > 100 µM
SN12C renal
  GI50: 37.1 µM
  TGI: > 100 µM
HCT-116 colon
  GI50: 26.8 µM
  TGI: > 100 µM
MALME-3M melanoma
  GI50: 22.7 µM
  TGI: 64.7 µM
RPMI-8226 leukemia
  GI50: 26 µM
  TGI: 79.3 µM
MCF7 breast
  GI50: 7.97 µM
  TGI: > 100 µM
LOX IMVI melanoma
  GI50: 26.9 µM
  TGI: > 100 µM
NCI-H522 lung
  GI50: 13.8 µM
  TGI: 39.9 µM
TK-10 renal
  GI50: 25.8 µM
  TGI: 60 µM
A498 renal
  GI50: 12.8 µM
  TGI: 47.7 µM
NCI-H23 lung
  GI50: 19.7 µM
  TGI: 60.5 µM
HCT-15 colon
  GI50: 20.5 µM
  TGI: > 100 µM
SF-295 CNS
  GI50: 15.8 µM
  TGI: 39.5 µM
UACC-257 melanoma
  GI50: 22.4 µM
  TGI: 61.8 µM
SK-MEL-5 melanoma
  GI50: 15.2 µM
  TGI: 30.6 µM
HOP-92 NSCLC
  GI50: 23.2 µM
  TGI: 65 µM

## C=C1C(=O)O[C@H]2[C@H]1CC/C(COC(=O)/C=C\C(=O)NCc1ccc(Cn3c(=O)sn(CCCI)c3=O)cc1)=C\CC[C@@]1(C)O[C@@H]21
BT-549 breast
  GI50: 0.622 µM
  TGI: 1.45 µM
NCI/ADR-RES ovarian
  GI50: 0.988 µM
  TGI: 3.61 µM
786-0 renal
  GI50: 0.77 µM
  TGI: 1.51 µM
SNB-19 CNS
  GI50: 0.85 µM
  TGI: 1.69 µM
HOP-62 NSCLC
  GI50: 1.51 µM
  TGI: 7.68 µM
CCRF-CEM leukemia
  GI50: 0.155 µM
  TGI: 1.68 µM
ACHN renal
  GI50: 0.413 µM
  TGI: 1.04 µM
PC-3 prostate
  GI50: 0.61 µM
  TGI: 1.44 µM
U251 CNS
  GI50: 0.871 µM
  TGI: 1.95 µM
SK-MEL-2 melanoma
  GI50: 0.919 µM
  TGI: 1.96 µM
K-562 leukemia
  GI50: 0.312 µM
  TGI: 13.1 µM
CAKI-1 renal
  GI50: 0.298 µM
  TGI: 0.999 µM
UACC-62 melanoma
  GI50: 0.732 µM
  TGI: 1.45 µM
UO-31 renal
  GI50: 0.316 µM
  TGI: 1.02 µM
MDA-MB-435
  GI50: 0.605 µM
  TGI: 1.25 µM
SR leukemia
  GI50: 0.17 µM
  TGI: 7.8 µM
SK-OV-3 ovarian
  GI50: 5.08 µM
  TGI: 11.4 µM
COLO 205 colon
  GI50: 0.568 µM
  TGI: 1.51 µM
RXF 393 renal
  GI50: 0.423 µM
  TGI: 1.11 µM
EKVX NSCLC
  GI50: 0.729 µM
  TGI: 1.44 µM
DU-145 prostate
  GI50: 0.654 µM
  TGI: 1.31 µM
MOLT-4 leukemia
  GI50: 0.557 µM
  TGI: 2.99 µM
SK-MEL-28 melanoma
  GI50: 0.8 µM
  TGI: 1.5 µM
SNB-75 CNS
  GI50: 0.442 µM
  TGI: 1.16 µM
SF-268 CNS
  GI50: 0.74 µM
  TGI: 1.44 µM
A549 NSCLC
  GI50: 1.05 µM
  TGI: 2.96 µM
NCI-H226 lung
  GI50: 0.883 µM
  TGI: 2.62 µM
OVCAR-3 ovarian
  GI50: 0.281 µM
  TGI: 0.927 µM
HS 578T breast
  GI50: 0.851 µM
  TGI: 2.39 µM
HCC-2998 colon
  GI50: 0.909 µM
  TGI: 1.66 µM
M14 melanoma
  GI50: 0.637 µM
  TGI: 1.44 µM
HL-60(TB) leukemia
  GI50: 0.575 µM
  TGI: 2.26 µM
NCI-H460 lung
  GI50: 0.738 µM
  TGI: 1.58 µM
SW-620 colon
  GI50: 0.25 µM
  TGI: 0.891 µM
OVCAR-5 ovarian
  GI50: 0.752 µM
  TGI: 1.59 µM
MDA-MB-231 breast
  GI50: 0.593 µM
  TGI: 1.34 µM
IGROV1 ovarian
  GI50: 0.368 µM
  TGI: 1.11 µM
T-47D breast
  GI50: 0.801 µM
  TGI: 2.17 µM
KM12 colon
  GI50: 0.866 µM
  TGI: 1.73 µM
SF-539 CNS
  GI50: 0.689 µM
  TGI: 1.34 µM
OVCAR-8 ovarian
  GI50: 0.771 µM
  TGI: 3.41 µM
HT29 colon
  GI50: 0.547 µM
  TGI: 2.46 µM
OVCAR-4 ovarian
  GI50: 0.603 µM
  TGI: 1.29 µM
SN12C renal
  GI50: 0.643 µM
  TGI: 1.5 µM
HCT-116 colon
  GI50: 0.193 µM
  TGI: 0.77 µM
MALME-3M melanoma
  GI50: 0.707 µM
  TGI: 1.42 µM
RPMI-8226 leukemia
  GI50: 0.196 µM
  TGI: 1.21 µM
MCF7 breast
  GI50: 0.282 µM
  TGI: 1.09 µM
LOX IMVI melanoma
  GI50: 0.291 µM
  TGI: 0.983 µM
NCI-H522 lung
  GI50: 0.643 µM
  TGI: 1.73 µM
TK-10 renal
  GI50: 0.758 µM
  TGI: 1.52 µM
A498 renal
  GI50: 0.831 µM
  TGI: 1.55 µM
NCI-H23 lung
  GI50: 0.788 µM
  TGI: 1.53 µM
HCT-15 colon
  GI50: 0.355 µM
  TGI: 1.12 µM
SF-295 CNS
  GI50: 2.19 µM
  TGI: 8.06 µM
UACC-257 melanoma
  GI50: 0.872 µM
  TGI: 1.81 µM
SK-MEL-5 melanoma
  GI50: 0.813 µM
  TGI: 1.49 µM
HOP-92 NSCLC
  GI50: 0.58 µM
  TGI: 1.31 µM
